Assay results: patent US20230167437A1, “COMPOSITIONS FOR TREATING CANCER WITH KRAS MUTATIONS AND USES THEREOF” (Aadigen, LLC, priority 2020, published 2023)

What was measured:
[1] = tested on: phospho-p44/42 MAPK (Erk1/2) (Thr202/Tyr204); assay: Western blot of KRAS downstream signaling 48 h post transfection; type: cell-based, human; conditions: PANC-1 cells
Protocol: (§1) In order to verify the specific effect of your lead sgRNA targeting G12V and G12D KRAS mutation, gRNA35A5 G12D and gRNA35T3 G12V on KRAS signal transduction pathway in PANC-1 and SW403 cells, we measured the levels of downstream signaling proteins that are activated by KRAS. We specifically looked for changes in key signaling pathways, such as mitogen-activated protein kinase (MAPK) or PI3K/Akt, which are known to be the major effector pathways of KRAS activation. Cas9 mRNA (0.2 μg) and gRNA (0.2 μg or 0.5 μg) were associated with ADGN peptide at molar ratio 20/1 (peptide/nucleic acid). PANC1 and SW403 cells were cultured in 48 well plate format and treated with free mRNACas9-gRNA, or ADGN/mRNACas9:gRNA complex. Levels of Erk and Akt phosphorylation were measured 48 h post transfection by western blot using phospho-Akt (Ser 473) (CST, #9271, RRID:AB_329825) and phospho-p44/42 MAPK (Erk1/2) (Thr202/Tyr204) (CST, #4370, RRID:AB_2315112).

phospho-Akt (Ser 473) = assay: as above; type: cell-based, human; conditions: PANC-1 cells
Protocol: as §1

pAKT = assay: Downstream signaling proteins quantified by ELISA on tumors; type: in vivo, mice; conditions: PANC1 tumors
Protocol: (§2) The specificity of gRNA35A5 G12D and gRNA35T3 G12V for their targets in PANC-1 and SW403 tumors cells, have been analyzed. Female nude mice 6-weeks of age were injected with either Human pancreatic carcinoma cell (Panc1-Luc) containing the 35G>A mutation or Human colorectal cancer cells (SW403) containing 35G>T KRAS mutation (20×10^6 cells in 200 μl PBS). A period of 2 weeks was allowed for tumor development before the beginning of the experiments.
(§3) Animal were injected on day 1 and day 7. Mice received IV injection of 100 μl ADGN/mRNA complex in 5% glucose. At Day 50, animals were sacrificed and tissues/tumors were harvested. At Day 50 post treatment, level of expression of housekeeping genes; glyceraldehyde-3-phosphate dehydrogenase (GAPDH), HPRT-1 and mitochondrial ATP synthase 6 (mATPsy6) was evaluated by PCR in the tumor, liver, spleen and lung.
(§4) We analyzed the level of KRAS G12D or KRAS G12V gene editing by deep sequencing in PANC1 (FIG. 14A) and SW403 (FIG. 14B) tumors, respectively. […] The level of downstream signaling proteins (pAKT and pERK) were quantified by ELISA on PANC1 and SW403 tumors. […] Given that targeting KRAS using Cas9/sgRNA can induce various secondary mutations at or near the target sites, deep sequencing shown similar level of secondary oncogenic mutations (G12D, G12V, G12C, G13D, G12R, G12A, and G12S) in KRAS-mutant cancer cells (SW403/PANC-1) or cells containing wild-type KRAS (HT29) either in vitro or in vivo.

pERK = assay: as above; type: in vivo, mice; conditions: PANC1 tumors
Protocol: as §2, §3, §4

[2] = tested on: PANC1, PK1, LS513 and PK-45H cells; assay: Cell proliferation over 5 days (CellTiter Glow); type: cell-based, human
Protocol: Transfection protocol. The following protocols are reported for 24/48/96 well plate format transfection. Cells should be trypsinized and seeded a day prior transfection Cells were cultured in Dulbecco's Modified Eagle's Medium (DMEM), supplemented with 2 mM glutamine, 1% antibiotics (streptomycin 10,000 μg/mL, penicillin, 10,000 IU/mL) and 10% (w/v) foetal calf serum (FCS), at 37° C. in a humidified atmosphere containing 5% CO2. 96 well plates seeded with 50,000 cells, the day prior transfection, grown to 60-80% confluence and set up to be at around 70% confluence at the day of transfection. Before transfection, cells are washed twice with DMEM (without FBS and pen/strep) (100 μl/well). Cells were then overlaid with 25 μl of complex solution, mixed gently and incubated for 10 min at 37° C.+5% CO2. 50 μl of fresh DMEM (without FBS and Antibiotics) was added and cells were incubated for 2 h at 37° C.+5% CO2 (time of exposure can be adjusted based on sensitivity of the cells). 250 μL of DMEM (containing 10% FCS and 1% antibiotics) were then added without removing the overlay of ADGN peptide/mRNA complexes. Cells were returned to the incubator (37° C., 5% CO2) and analyzed 48 hours to 72 hours post transfection.
Nine different gRNAs targeting KRAS 35G>A mutant G12D (gRNA35A1, gRNA35A2, gRNA35A3, gRNA35A4, gRNA35A5, gRNA35A6; gRNA35A7, gRNA35A8, gRNA35A9) were evaluated on LS513, Panc1, PK-45H, and PK1 cancer cells harboring G12D KRAS mutation. Cas9 mRNA (0.1 μg) and gRNA (0.2 μg) were associated with ADGN-peptide at molar ratio 20/1 (peptide/nucleic acid). LS513, Panc1, PK-45H, PK1, HS-68 and HT-29 cells were cultured in 48 well plate format and treated with free mRNACas9-gRNA, or ADGN/mRNACas9:gRNA complex. Indel frequencies at the endogenous target sequences was evaluated 72 hours after transfection by either T7E1 method or deep sequencing. Cell proliferation was analyzed over a period of 5 days using CellTiter Glow kits on GlowMax (Promega).

[3] = tested on: G12V, G12D, G12C KRAS mutant cells and WT KRAS cells; assay: Specificity of lead sgRNAs on a large panel of cancer cells harboring different KRAS mutations (indel, proliferation); type: cell-based, human; conditions: Cas9 mRNA 0.2 μg, gRNA 0.4 μg
Protocol: In order to confirm the specificity of sgRNAs targeting G12V, G12C or G12D KRAS mutation, gRNA35T3 targeting G12V, gRNA34T6 targeting G12C, and gRNA35A5 targeting G12D were evaluated on a large panel of cancer cells harboring different KRAS mutations including SW403, SW480, PANC1, PK-45H, PK-1, MIA-PACA, H23, H358, HT-29, HS-68 and LS513. Cas9 mRNA (0.2 μg) and gRNA (0.4 μg) were associated with ADGN peptide at molar ratio 20/1 (peptide/nucleic acid). Cells were cultured in 48 well plate format and treated with free mRNACas9-gRNA, or ADGN/mRNACas9:gRNA complex. Indel frequencies at the endogenous target sequences was evaluated 72 hours after transfection by either T7E1 method and cell proliferation was analyzed over a period of 5 days using CellTiter Glow kits on GlowMax (Promega).

Sequence: AGT TGG AGC TGA TGG CGT (guide AGTTGGAGCTGATGGCGT; chemistry not given here) [gRNA35A5, sgRNA target KRAS G12D mutation (35G>A); PAM AGG]
- level of P-Erk reduced by [1]: 15%
- level of p-AKT (phospho-Akt (Ser 473)): significantly reduced
- level of p-AKT (pAKT): significantly reduced
- level of p-ERK (pERK): significantly reduced
- fold more efficient than gRNA35A2 (cell proliferation) [2]: 2 fold
- fold more efficient than gRNA35A6 (cell proliferation) [2]: 3 fold
- inhibition of proliferation or survival (FIG. 2B) ([2]; PANC1, PK1, LS513, PK-45H vs HT29 or HS-68 cells harboring KRAS WT): specifically inhibit proliferation or survival of PANC1, PK1, LS513 and PK-45H cells
- cell proliferation blocked ([2]; PANC1, PK1, LS513 and PK-45H cells, 5 days): 80%
- effect on non-targeted KRAS mutant cells and WT KRAS cells (FIGS. 4A-4B) [3]: does not alter G12V and G12C KRAS mutant cells or WT KRAS cells
